Results as given in US11111217B2, “2-arylbenzimidazoles as Ppargc1a activators for treating neurodegenerative diseases” (The Board of Trustees of the Leland Stanford Junior …, priority 2018, dated 2021).
Where “and” joins values, the source holds several entries; their conditions need not be identical. Equal values may be shown once.

Assays:
[1] = Microsome stability assay, human liver microsomes; format: in vitro ADME; settings: pH 7.4, 1 μM test compound, NADPH 1 mM, 37° C., 0-40 mins, read-out: HLM t1/2
Experimental: (§1) Microsome Stability Assay Protocol
(§2) Human liver microsomes (Corning #452117 lot 38291) or Mouse liver microsomes (Corning #452701, lot #6328004) were separately combined at a final concentration of […] with KxPO4 pH 7.4 (100 mM), MgCl2 (10 mM), and test compound (1 μM) and pre-incubated (10 min, 37° C.). Next, NADPH (1 mM) was added to begin reactions (total volume 100 μL). At various time points (0, 10, 20, and 40 mins), reactions were quenched with Clem stop solution (100 μL, 625 ng/mL) (Cyprotex) in Acetonitrile. Samples were centrifuged at 4000 g for 20 mins, diluted (75 μL into 75 μL 0.1% formic acid in water), and analyzed by LC-MS/MS.

[2] = Caco-2 permeability assay; settings: human, Caco-2, pH 7.4, with elacridar (concentration not stated)
[3] = tested on: Caco-2 cells; experiment: Caco-2 permeability assay; settings: 10 μM, HBSS pH 7.4, 37° C., 2 h; for Caco2 A → B: without elacridar
Experimental: Caco-2 Permeability Assay Protocol
Caco-2 cells were maintained in DMEM in an atmosphere of 5% CO2. For transport experiments 5×10^5 cells/well of were seeded on polycarbonate filter inserts and allowed to grow and differentiate for 21±4 days before the cell monolayers were used for experiments. Apparent permeability coefficients were determined for A→B and B→A directions with and without the presence of elacridar as a transporter inhibitor. Up to three test items and reference compounds were dissolved in Hank's balanced salt solution at pH 7.4 to yield a final concentration of 10 μM.
The assays were performed in HBSS containing 25 mM HEPES (pH 7.4) at 37° C. Prior to the study, the monolayers were washed in prewarmed HBSS. At the start of the experiments prewarmed HBSS containing the test items was added to the donor side of the monolayer and HBSS without test items was added to the receiver side. Aliquots of the receiver side were taken over the 2 h incubation period; aliquots of the donor side were taken at 0 hand 2 h. Aliquots were diluted with an equal volume of methanol/water with 0.1% formic acid containing the internal standard. The mixture was analyzed by LC-MS/MS. The apparent permeability coefficients (Papp) were calculated using the formula: Papp=(dCrec/dt)/(A×C0,donor)]×106 with dCrev/dt being the change in concentration in the receiver compartment with time, C0,donor the concentration in the donor compartment at time 0, and A the area of the compartment with the cells.

[4] = tested on: TNF-α production by BV2 cells or PBMC; experiment: Cellular assay to measure TNF-α inhibition (LPS-stimulated, ELISA); format: cell-based, murine (BV2) or human (PBMC); settings: BV2 cells or PBMC (not specified), LPS 100 ng/ml over 24 hours, relative to DMSO vehicle; compound concentration not stated
Excerpt: Oxidative metabolism exerts an anti-inflammatory effect on myeloid cell phenotype (O'Neill L A, Front Immunol. 2014) and Ppargc1a can promote this energy metabolic pathway (Spiegelman BM, Novartis Found Symp. 2007). Thus, pharmacological activation of Ppargc1a would be expected to inhibit the inflammatory response of myeloid cells. This phenomenon can be measured in cultures by a TNF-α inhibition assay.
Cellular Assay Protocol to Measure TNF-α Inhibition
The murine myeloid cell line BV2 or human peripheral blood mononuclear cells (PBMC) are cultured in RPMI 1640 media (Cat #11875119, Gibco) supplemented with 10% fetal bovine serum and 1% L-glutamine 1% penicillin. These cells are then stimulated with 100 ng/ml of lipopolysaccharide (LPS, O111:B34, Cat # L2630, Sigma) over 24 hours. LPS stimulation results in the secretion of the inflammatory cytokine TNF-α by BV2 cells or PBMC, which can be quantified by ELISA in culture supernatant samples per manufacturer's protocol (Cat #558273 for BV2 and Cat #558299 for PBMC, BD Biosciences). To determine whether exampl compounds 1-78 inhibit TNF-α production by BV2 cells or PBMC, the cells were cultured in the presence of the compounds at different concentrations, and fold reduction in TNF-α production relative to TNF-α production by the same cells cultured in the presence of dimethylsulfoxide (as vehicle control) was determined.

[5] = Microsome stability assay, mouse liver microsomes; format: in vitro ADME; settings: pH 7.4, 1 μM test compound, NADPH 1 mM, 37° C., 0-40 mins, read-out: MLM t1/2
Experimental: as §1, §2

| SMILES | half-life at 1 μM [1] | Papp A→B at 2 h, 10 μM [2] | Caco2 B → A [3] | Caco2 A → B [3] | TNF α Inhibition [4] | half-life at 1 μM [5] |
| --- | --- | --- | --- | --- | --- | --- |
| CC(=O)OCn1c(-c2ccc(C(C)(C)C)cc2)nc2ccccc21 [Example 1-P, (2-(4-(tert-Butyl)phenyl)-1H-benzo[d]imidazol-1-yl)methyl acetate] | 10.1 min | 0.105 ×10⁻⁶ cm/s |  |  |  |  |
| CC(C)(C)c1ccc(-c2nc3cnccc3[nH]2)cc1 [Example 2, 2-(4-(tert-Butyl)phenyl)-1H-imidazo[4,5-c]pyridine] |  | 2.15 ×10⁻⁶ cm/s | 57.1 nm/s | 24.7 nm/s and 22.3 nm/s | A (A = >80% inh.) |  |
| CCCC(=O)OCn1c(-c2ccc(C(C)(C)C)cc2)nc2ccccc21 [Example 2-P, (2-(4-(tert-Butyl)phenyl)-1H-benzo[d]imidazol-1-yl)methyl butyrate] |  | 0.0282 ×10⁻⁶ cm/s |  | 0.532 nm/s and 1.01 nm/s |  |  |
| CC(C)(C)c1ccc(-c2cn3ccccc3n2)cc1 [Example 5, 2-(4-tert-Butylphenyl)imidazo[1,2-a]pyridine] | 11.5 min | 0.858 ×10⁻⁶ cm/s |  | 9.86 nm/s | A (A = >80% inh.) | 8.4 min |
| CC(C)(C)c1ccc(-c2nc3ccccc3n2COP(=O)(O)O)cc1 [Example 10-P, Dihydrogen ((2-(4-(tert-butyl)phenyl)-1H-benzo[d]imidazol-1-yl)methyl) phosphate] | 159 min | 0.0014 ×10⁻⁶ cm/s |  | 0.0893, nm/s and 0.0565 nm/s |  | 159 min |
| COC(=O)n1c(-c2ccc(C(C)(C)C)cc2)nc2ccccc21 [Example 14-P, Methyl 2-(4-(tert-butyl)phenyl)-1H-benzo[d]imidazole-1-carboxylate] | 25.1 min | 0.251 ×10⁻⁶ cm/s |  | 9.33 nm/s and 6.35 nm/s |  | 5.5 min |
| COc1ccc(-c2nc3ccccc3[nH]2)cc1 [Example 21, 2-(4-Methoxy-phenyl)-1H-benzo[d]imidazole] | 4.2 min | 3.31 ×10⁻⁶ cm/s |  | 93.2 nm/s | A (A = >80% inh.) | 3.2 min |
| CC(C)(C)c1ccc(-c2nc3cc(C(F)(F)F)ccc3[nH]2)cc1 [Example 42, 2-(4-tert-Butylphenyl)-5-(trifluoromethyl)-1H-benzo[d]imidazole] | 83.8 min | 0.0408 ×10⁻⁶ cm/s | 1.2 nm/s | 0.878 nm/s | A (A = >80% inh.) | 110 min |
| CC(C)(C)c1ccc(-c2nc3cc(N)ccc3[nH]2)cc1 [Example 44, 2-(4-tert-Butylphenyl)-1H-benzo[d]imidazol-5-amine] | 42.5 min | 2.05 ×10⁻⁶ cm/s | 45.4 nm/s | 23.6 nm/s | A (A = >80% inh.) | 20.6 min |
| Nc1ccccc1-c1nc2ccccc2[nH]1 [Example 48, 2-(2-Aminophenyl)-1H-benzo[d]imidazole] |  |  |  |  | C (C = <50% inh.) |  |
| CC(C)(C)c1ccc(-c2nc3c(F)cccc3[nH]2)cc1 [Example 49, 2-(4-tert-Butylphenyl)-4-fluoro-1H-benzo[d]imidazole] |  |  |  |  | A (A = >80% inh.) |  |
| CC(C)(C)c1ccc(-c2nc3c(O)cccc3[nH]2)cc1 [Example 50, 2-(4-tert-Butylphenyl)-1H-benzo[d]imidazol-4-ol] |  |  |  |  | A (A = >80% inh.) |  |
| COc1cccc2[nH]c(-c3ccc(C(C)(C)C)cc3)nc12 [Example 51, 2-(4-tert-Butylphenyl)-4-methoxy-1H-benzo[d]imidazole] |  |  |  |  | A (A = >80% inh.) |  |
| CC(C)(C)c1ccc(-c2nc3cc(F)c(F)cc3[nH]2)cc1 [Example 52, 2-(4-tert-Butylphenyl)-5,6-difluoro-1H-benzo[d]imidazole] |  |  |  |  | C (C = <50% inh.) |  |
| CC(C)(C)c1cc(-c2nc3ccccc3[nH]2)cc(C(C)(C)C)c1 [Example 53, 2-(3,5-di-tert-Butylphenyl)-1H-benzo[d]imidazole] |  |  |  |  | C (C = <50% inh.) |  |
| CC(C)(C)c1ccc(-c2nc3c(Br)cccc3[nH]2)cc1 [Example 54, 2-(4-tert-Butylphenyl)-4-bromo-1H-benzo[d]imidazole] |  |  |  |  | A (A = >80% inh.) |  |

| SMILES | half-life at 1 μM [1] | Papp A→B at 2 h, 10 μM [2] | Caco2 B → A [3] | Caco2 A → B [3] | TNF α Inhibition [4] | half-life at 1 μM [5] |
| --- | --- | --- | --- | --- | --- | --- |
| CC(C)(C)c1ccc(-c2nc3c(F)c(F)ccc3[nH]2)cc1 [Example 55, 2-(4-tert-Butylphenyl)-4,5-difluoro-1H-benzo[d]imidazole] | 20.6 min | 0.0693 ×10⁻⁶ cm/s | 9.94 nm/s | 4.27 nm/s | A (A = >80% inh.) | 21.4 min |
| FC(F)(F)C1(c2ccc(-c3nc4ccccc4[nH]3)cc2)CC1 [Example 59, 2-[4-[1-(Trifluoromethyl)-cyclopropyl]phenyl]-1H-benzo[d]imidazole] |  |  |  |  | C (C = <50% inh.) |  |
| CC(C)(C)c1ccc(-c2nc3c(N)cccc3[nH]2)cc1 [Example 62, 2-(4-tert-Butylphenyl)-1H-benzo[d]imidazol-4-amine] |  |  |  |  | A (A = >80% inh.) |  |
| c1ccc(-c2ccc(-c3nc4ccccc4[nH]3)cc2)cc1 [Example 65, 2-(4-Biphenyl)-1H-benzo[d]imidazole] |  |  |  |  | C (C = <50% inh.) |  |
| FC(F)(F)Oc1ccc(-c2nc3ccccc3[nH]2)cc1 [Example 66, 2-(4-Trifluoromethoxyphenyl)-1H-benzo[d]imidazole] |  |  |  |  | C (C = <50% inh.) |  |
| CCOc1ccc(-c2nc3ccccc3[nH]2)cc1 [Example 67, 2-(4-Ethoxyphenyl)-1H-benzo[d]imidazole] |  |  |  |  | C (C = <50% inh.) |  |
| CCCOc1ccc(-c2nc3ccccc3[nH]2)cc1 [Example 68, 2-(4-Propoxyphenyl)-1H-benzo[d]imidazole] |  |  |  |  | C (C = <50% inh.) |  |
| CC(C)Oc1ccc(-c2nc3ccccc3[nH]2)cc1 [Example 69, 2-(4-Isopropoxyphenyl)-1H-benzo[d]imidazole] |  |  |  |  | A (A = >80% inh.) |  |
| FC(F)Oc1ccc(-c2nc3ccccc3[nH]2)cc1 [Example 70, 2-(4-(Difluoromethoxy)phenyl)-1H-benzo[d]imidazole] |  |  |  |  | B (B = 50-80% inh.) |  |
| CC(C)(C)Oc1ccc(-c2nc3ccccc3[nH]2)cc1 [Example 71, 2-(4-tert-Butoxyphenyl)-1H-benzo[d]imidazole] |  |  |  |  | B (B = 50-80% inh.) |  |
| c1ccc(Oc2ccc(-c3nc4ccccc4[nH]3)cc2)cc1 [Example 72, 2-(4-Phenoxyphenyl)-1H-benzo[d]imidazole] |  |  |  |  | C (C = <50% inh.) |  |
| c1ccc(COc2ccc(-c3nc4ccccc4[nH]3)cc2)cc1 [Example 73, 2-(4-Benzyloxyphenyl)-1H-benzo[d]imidazole] |  |  |  |  | C (C = <50% inh.) |  |
| CC(C)(C)c1ccc(-c2nc3c(C(N)=O)cccc3[nH]2)cc1 [Example 74, 2-(4-tert-Butylphenyl)-1H-benzo[d]imidazol-4-carboxamide] |  |  |  |  | A (A = >80% inh.) |  |
| CC(C)(C)c1ccc(-c2nc3cc(C(N)=O)ccc3[nH]2)cc1 [Example 75, 2-(4-tert-Butylphenyl)-1H-benzo[d]imidazol-5-carboxamide] |  | 1.33 ×10⁻⁶ cm/s | 28.5 nm/s | 16 nm/s | A (A = >80% inh.) |  |
| COc1ccc(-c2nc3c(F)cc(F)cc3[nH]2)cc1 [Example 78, 4,6-Difluoro-2-(4-methoxyphenyl)-1H-benzo[d]imidazole] |  |  |  |  | C (C = <50% inh.) |  |
